Measurements: patent US12226405B2, “Compounds and compositions for inhibiting the activity of HIF2-alpha and their methods of use” (Novartis AG, priority 2020, dated 2025)
pIC50: −log10 of the molar value.

System: HIF2α-regulated expression of the endogenous target gene hEGLN3 in 786-O cells
Experiment: Cellular iScript assay for HIF2α (quantitative RT-PCR of hEGLN3)
Assay type: cell-based, human
Conditions: Homo sapiens, 786-0, 48 hours incubation
How it was run: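 786-O cells were exposed to eleven 2-fold compound dilutions for 48 h at 37° C. Lysates underwent one-step TaqMan qRT-PCR for hEGLN3 with beta-actin as reference; 2^(−ΔΔCt) versus DMSO, as % of control, was fit with a four-parameter model to give IC50.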

SMILES	pIC50
FC(F)OC1=CC(C(F)(F)F)=CN2C[C@@]3(CCC(F)(F)c4c3ccnc4Cl)N=C12 [Example 31, (S)-1′-chloro-8-(difluoromethoxy)-8′,8′-difluoro-6-(trifluoromethyl)-7′,8′-dihydro-3H,6′H-spiro[imidazo[1,2-a]pyridine-2,5′-isoquinoline]]	7.43
FC(F)OC1=CC(C(F)(F)F)=CN2C[C@@]3(CCOc4cc(C(F)(F)F)ccc43)N=C12 [Example 44, (S)-8′-(difluoromethoxy)-6′,7-bis(trifluoromethyl)-3′H-spiro[chroman-4,2′-imidazo[1,2-a]pyridine]]	7.19
